System: human embryonic stem cell derived neural stem cells (NSCs)
Test: Neural stem cell proliferation assay (neurogenesis assay)
Format: cell-based
Settings: Homo sapiens, Neural stem cell, 96 h, concentration at which 150% activity of control (100%) is reached, ATP levels (CellTiterGlo) after 4 days incubation
Description: Neural Stem Cell Proliferation Assay
Neurogenic properties of small molecules are determined based on the proliferation of human embryonic stem cell derived neural stem cells (NSCs) which were derived via a dual smad inhibition as previously described (Chambers, S. M., et al., Highly efficient neural conversion of human ES and iPS cells by dual inhibition of SMAD signaling, Nature biotechnology, 2009. 27 (3): p. 275-80.)
Compounds respond is measured by the increase in cells based on ATP levels (Promega:CellTiterGlo®) after an incubation period of 4 days.
NSCs are thawed and expanded over 3 passages. On the 14th day, NSCs are seeded in Polyornithin/Laminin coated 384 well plates at a cell density of 21,000 cells/cm^2 in a media volume of 38 μl.
4 hours after cell seeding, compound solutions are added at a volume of 2 μl. Stock solutions of the compounds (water, 5% DMSO) are diluted to obtain a dose response (11 points, dilution factor is 2), ranging from 8 μM to 8 nM. Controls are run to consistently determine the neurogenic properties of the cells:
Negative (neutral) control is cell culture Media (final DMSO concentration: 0.25%).
Positive controls are: • 1. cell culture Media+100 ng/ml FGF2 (final DMSO concentration: 0.1%) • 2. cell culture Media+20 ng/ml EGF (final DMSO concentration: 0.1%) • 3. cell culture Media+100 ng/ml Wnt3a (final DMSO concentration: 0.1%)
After 4 days incubation at 37° C., 5% CO2, the amount of ATP per well is quantified. The ATP concentration is proportional to the cell number. ATP is quantified by using the Promega CellTiterGlo® kit. The CellTiterGlo® reagents contain a cell lysis buffer, a thermo stable luciferase (UltraGlo™ recombinant luciferase), magnesium and luciferin. Luciferin reacts with ATP producing oxyluciferin, AMP and light. The luminescence signal is proportional to the ATP content.
The value of negative (neutral) control is determined for each assay plate by taking the average of 16 negative control wells. The neurogenic compound response is calculated for each compound as (compound/Negative Control)*100.
The values of EC150 from the dose response curve are determined for each test compound. The EC150 is the compound concentration at which 150% activity of control (100%) is reached.

Row | Compound | EC (150% of control) (Table 2, known compounds) [µM] | EC (150% of control) (Table 1, novel compounds) [µM]
1 | COc1ccc(-c2cncc3ccc(C(=O)NCc4cnc(C)cn4)nc23)cc1 [Example 180, 8-(4-Methoxy-phenyl)-[1,6]naphthyridine-2-carboxylic acid (5-methyl-pyrazin-2-ylmethyl)-amide] | 1.26 | –
2 | NC(=O)c1ccc2cncc(N3CCOCC3)c2n1 [Example 142, 8-Morpholino-1,6-naphthyridine-2-carboxamide] | – | 0.94
3 | O=C(NCCO)c1ccc2cncc(-c3ccc(Cl)cc3)c2n1 [Example 158, 8-(4-Chlorophenyl)-N-(2-hydroxyethyl)-1,6-naphthyridine-2-carboxamide] | – | 0.09
4 | CC1(CNC(=O)c2ccc3cncc(-c4ccc(Cl)cc4)c3n2)CCC(=O)N1 (stereo not shown) [Example 62, 8-(4-Chlorophenyl)-N-((2-methyl-5-oxopyrrolidin-2-yl)methyl)-1,6-naphthyridine-2-carboxamide] | – | 0.01
5 | Cc1cc(-c2cncc3ccc(C(N)=O)nc23)ccn1 [Example 90, 8-(2-Methylpyridin-4-yl)-1,6-naphthyridine-2-carboxamide] | – | 0.17
6 | CS(=O)(=O)c1cccc(CNC(=O)c2ccc3cncc(-c4ccc(Cl)cc4)c3n2)c1 [Example 51, 8-(4-Chlorophenyl)-N-(3-(methylsulfonyl)benzyl)-1,6-naphthyridine-2-carboxamide] | – | 0.12
7 | CS(=O)(=O)CCNC(=O)c1ccc2cncc(-c3ccc(Cl)cc3)c2n1 [Example 72, 8-(4-Chlorophenyl)-N-(2-(methylsulfonyl)ethyl)-1,6-naphthyridine-2-carboxamide] | – | 0.1
8 | Cc1cc2cncc(-c3ccc(OC(F)(F)F)cc3)c2nc1C(N)=O [Example 154, 3-Methyl-8-(4-(trifluoromethoxy)phenyl)-1,6-naphthyridine-2-carboxamide] | – | 2.19
9 | COc1ccc(-c2cncc3ccc(C(=O)NCCC(F)(F)F)nc23)cc1 [Example 35, 8-(4-Methoxyphenyl)-N-(3,3,3-trifluoropropyl)-1,6-naphthyridine-2-carboxamide] | – | 1.74
10 | COCCNC(=O)c1ccc2cncc(-c3ccc(OC)cc3)c2n1 [Example 2, N-(2-Methoxyethyl)-8-(4-methoxyphenyl)-1,6-naphthyridine-2-carboxamide] | – | 0.03
11 | COc1ccc(-c2cncc3ccc(C(=O)N4CCN(Cc5nc(OC)cc(OC)n5)CC4)nc23)cc1 [Example 187, [4-(4,6-Dimethoxy-pyrimidin-2-ylmethyl)-piperazin-1-yl]-[8-(4-methoxy-phenyl)-[1,6]naphthyridin-2-yl]-methanone] | 0.71 | –
12 | CS(=O)(=O)CCNC(=O)c1ccc2cncc(-c3ccc(F)cc3F)c2n1 [Example 129, 8-(2,4-Difluorophenyl)-N-(2-(methylsulfonyl)ethyl)-1,6-naphthyridine-2-carboxamide] | – | 0.06
13 | O=C(NCc1ccncc1)c1ccc2cncc(-c3cccnc3)c2n1 [Example 31, 8-(Pyridin-3-yl)-N-(pyridin-4-ylmethyl)-1,6-naphthyridine-2-carboxamide] | – | 0.54
14 | COCCNC(=O)c1ccc2cnccc2n1 [Example 4, N-(2-Methoxyethyl)-1,6-naphthyridine-2-carboxamide] | – | 0.5
15 | O=C(NC1CCOC1)c1ccc2cncc(-c3ccc(Cl)cc3)c2n1 (stereo not shown) [Example 60, 8-(4-Chlorophenyl)-N-(tetrahydrofuran-3-yl)-1,6-naphthyridine-2-carboxamide] | – | 0.15
16 | Cc1cc2cncc(-c3ccc(C(F)(F)F)cc3)c2nc1C(N)=O [Example 157, 3-Methyl-8-[4-(trifluoromethyl)phenyl]-1,6-naphthyridine-2-carboxamide] | – | 0.88
17 | Cc1nc(C)c(-c2cncc3ccc(C(N)=O)nc23)s1 [Example 102, 8-(2,4-Dimethylthiazol-5-yl)-1,6-naphthyridine-2-carboxamide] | – | 0.14
18 | O=C(Nc1ccccc1)c1ccc2cncc(-c3ccc(Cl)cc3)c2n1 [Example 53, 8-(4-Chlorophenyl)-N-phenyl-1,6-naphthyridine-2-carboxamide] | – | 0.23
19 | O=C(NCc1ccncn1)c1ccc2cncc(-c3ccc(Cl)cc3)c2n1 [Example 96, 8-(4-Chlorophenyl)-N-(pyrimidin-4-ylmethyl)-1,6-naphthyridine-2-carboxamide] | – | 0.17

Row | Compound | EC (150% of control) (Table 2, known compounds) [µM] | EC (150% of control) (Table 1, novel compounds) [µM]
20 | CS(=O)(=O)CCNC(=O)c1ccc2cncc(-c3ccc(F)c(F)c3)c2n1 [Example 137, 8-(3,4-Difluorophenyl)-N-(2-(methylsulfonyl)ethyl)-1,6-naphthyridine-2-carboxamide] | – | 0.35
21 | O=C(NCc1ccccc1)c1ccc2cncc(-c3ccc(Cl)cc3)c2n1 [Example 13, N-Benzyl-8-(4-chlorophenyl)-1,6-naphthyridine-2-carboxamide] | – | 0.05
22 | O=C(NCCCn1ccnc1)c1ccc2cncc(C3=CCOCC3)c2n1 [Example 43, N-(3-(1H-Imidazol-1-yl)propyl)-8-(3,6-dihydro-2H-pyran-4-yl)-1,6-naphthyridine-2-carboxamide] | – | 2.68
23 | CC(NC(=O)c1ccc2cncc(-c3ccc(F)cc3)c2n1)c1ccc(S(C)(=O)=O)cc1 (stereo not shown) [Example 107, 8-(4-Fluorophenyl)-N-(1-(4-(methylsulfonyl)phenyl)ethyl)-1,6-naphthyridine-2-carboxamide] | – | 0.1
24 | O=C(NCC(F)(F)F)c1ccc2cncc(-c3ccc(Cl)cc3)c2n1 [Example 63, 8-(4-Chlorophenyl)-N-(2,2,2-trifluoroethyl)-1,6-naphthyridine-2-carboxamide] | – | 0.23
25 | O=C(NCc1ccccc1)c1ccc2cncc(-c3ccsc3)c2n1 [Example 199, 8-Thiophen-3-yl-[1,6]naphthyridine-2-carboxylic acid benzylamide] | 0.1 | –
26 | O=C(NC1CC1)c1ccc2cncc(-c3ccc(Cl)cc3)c2n1 [Example 65, 8-(4-Chlorophenyl)-N-cyclopropyl-1,6-naphthyridine-2-carboxamide] | – | 0.08
27 | CC(NC(=O)c1ccc2cncc(-c3cc(F)c(F)c(F)c3)c2n1)C(C)(C)O (stereo not shown) [Example 173, N-(3-Hydroxy-3-methylbutan-2-yl)-8-(3,4,5-trifluorophenyl)-1,6-naphthyridine-2-carboxamide] | – | 0.9
28 | CC(C)(C)CNC(=O)c1ccc2cncc(-c3cccc(F)c3)c2n1 [Example 119, 8-(3-Fluorophenyl)-N-neopentyl-1,6-naphthyridine-2-carboxamide] | – | 0.27
29 | COc1ccc(-c2cncc3ccc(C(=O)NCCc4ccccc4)nc23)cc1 [Example 20, 8-(4-Methoxyphenyl)-N-phenethyl-1,6-naphthyridine-2-carboxamide] | – | 0.8
30 | CCCCCCNC(=O)Cc1ccc(-c2cncc3ccc(C(N)=O)nc23)cc1 [Example 150, 8-(4-(2-(Hexylamino)-2-oxoethyl)phenyl)-1,6-naphthyridine-2-carboxamide] | – | 0.04
31 | O=C(c1ccc2cncc(-c3ccc(Cl)cc3F)c2n1)N1CCC(O)C1 (stereo not shown) [Example 130, (8-(4-Chloro-2-fluorophenyl)-1,6-naphthyridin-2-yl)(3-hydroxypyrrolidin-1-yl)methanone] | – | 0.13
32 | Cc1ccccc1-c1cncc2ccc(C(N)=O)nc12 [Example 82, 8-o-Tolyl-1,6-naphthyridine-2-carboxamide] | – | 2.05
33 | O=C(NCc1ccc(C(F)(F)F)nc1)c1ccc2cncc(-c3ccsc3)c2n1 [Example 203, 8-Thiophen-3-yl-[1,6]naphthyridine-2-carboxylic acid (6-trifluoromethyl-pyridin-3-ylmethyl)-amide] | 1.5 | –
34 | CS(=O)(=O)CCNC(=O)c1ccc2cncc(-c3cccc(F)c3)c2n1 [Example 134, 8-(3-Fluorophenyl)-N-(2-(methylsulfonyl)ethyl)-1,6-naphthyridine-2-carboxamide] | – | 0.22
35 | CN(C)c1cc(-c2cncc3ccc(C(N)=O)nc23)ccn1 [Example 140, 8-(2-(Dimethylamino)pyridin-4-yl)-1,6-naphthyridine-2-carboxamide] | – | 0.147
36 | Cc1cc2cncc(-c3ccc(Cl)cc3)c2nc1C(N)=O [Example 152, 8-(4-Chlorophenyl)-3-methyl-1,6-naphthyridine-2-carboxamide] | – | 0.34
37 | COc1ccccc1CNC(=O)c1ccc2cncc(-c3ccc(Cl)cc3)c2n1 [Example 47, 8-(4-Chlorophenyl)-N-(2-methoxybenzyl)-1,6-naphthyridine-2-carboxamide] | – | 0.13

From patent publication US9657014B2, “Substituted 1,6-naphthyridines” (Hoffmann-La Roche Inc., priority 2012, dated 2017)
